Assay results: ChEMBL document CHEMBL1129122, “Synthesis and antimicrobial activity of 4-amino trinems” (1996)
Values after ≈ are worked out from the molar mass of the structure shown.

Legend:
Type in all cases: functional
Escherichia coli [1] = experiment: In vitro antibacterial activity against Escherichia coli 1919 strain
Enterococcus faecalis = experiment: In vitro antibacterial activity against Enterococcus faecalis 850 strain
Escherichia coli [2] = experiment: In vitro antibacterial activity against Escherichia coli 1850 strain
Staphylococcus aureus [3] = experiment: In vitro antibacterial activity against Staphylococcus aureus 663 strain
Staphylococcus aureus [4] = experiment: In vitro antibacterial activity against Staphylococcus aureus 853 strain
Pseudomonas aeruginosa = experiment: In vitro antibacterial activity against Pseudomonas aeruginosa 1911 strain

Row | SMILES | MIC (Escherichia coli [1]) [µg/mL] | MIC (Enterococcus faecalis) [µg/mL] | MIC (Escherichia coli [2]) [µg/mL] | MIC (Staphylococcus aureus [3]) [µg/mL] | MIC (Staphylococcus aureus [4]) [µg/mL] | MIC (Pseudomonas aeruginosa) [µg/mL]
1 | C[C@@H](O)[C@H]1C(=O)N2C(C(=O)O)=C3[C@H](CCC[C@@H]3N(C)C)[C@H]12 | 1 (≈ 3.4 µM) | > 32 | 2 (≈ 6.79 µM) | 0.25 (≈ 0.849 µM) | 0.25 (≈ 0.849 µM) | 8 (≈ 27.2 µM)
2 | C[C@@H](O)[C@H]1C(=O)N2C(C(=O)O)=C3[C@@H](NC4CCCC4)CCC[C@@H]3[C@H]12 | 32 (≈ 95.7 µM) | 32 (≈ 95.7 µM) | 8 (≈ 23.9 µM) | 8 (≈ 23.9 µM) | 4 (≈ 12 µM) | 32 (≈ 95.7 µM)
3 | CO[C@H]1CCC[C@H]2C1=C(C(=O)[O-])N1C(=O)[C@H]([C@@H](C)O)[C@@H]21.[Na+] [SANFETRINEM SODIUM] | 0.5 | 1 | 0.5 | 0.25 | 0.25 | > 32

Second part, the compound after the results:

Row | MIC (Escherichia coli [1]) [µg/mL] | MIC (Enterococcus faecalis) [µg/mL] | MIC (Escherichia coli [2]) [µg/mL] | MIC (Staphylococcus aureus [3]) [µg/mL] | MIC (Staphylococcus aureus [4]) [µg/mL] | MIC (Pseudomonas aeruginosa) [µg/mL] | SMILES
4 | 0.5 (≈ 1.88 µM) | 16 (≈ 60.1 µM) | 1 (≈ 3.76 µM) | 0.25 (≈ 0.939 µM) | 0.25 (≈ 0.939 µM) | 4 (≈ 15 µM) | C[C@@H](O)[C@H]1C(=O)N2C(C(=O)O)=C3[C@@H](N)CCC[C@@H]3[C@H]12
5 | 0.5 (≈ 1.78 µM) | 16 (≈ 57.1 µM) | 2 (≈ 7.13 µM) | 0.25 (≈ 0.892 µM) | 0.5 (≈ 1.78 µM) | 4 (≈ 14.3 µM) | CN[C@H]1CCC[C@H]2C1=C(C(=O)O)N1C(=O)[C@H]([C@@H](C)O)[C@@H]21
